Experiments:
Type in all cases: cell-based
SMARCA4 = biological target: T1, SMARCA4 (Homo sapiens, UniProt P51532); assay: SMARCA4 Western blot degradation in MV4-11 cells; settings: for SMARCA4 MSD MV411 degradation 24 h: average Dmax % / DC50: MV4-11 cells; for DC50 / Dmax: 24 h; for DC50: read-out: SMARCA4 MSD MV411 degradation 24 h: Mean external-Abs DC50; for Dmax: MV4-11, MV4-11 cells, read-out: SMARCA4 MSD MV411 degradation 24 h: average Dmax %
T1 construct: SMARCA2/SMARCA4 protein degradation selectivity in MV4-11 cells; endogenous in cells; host or cells: MV4-11
T1 sequence (P51532 whole entry): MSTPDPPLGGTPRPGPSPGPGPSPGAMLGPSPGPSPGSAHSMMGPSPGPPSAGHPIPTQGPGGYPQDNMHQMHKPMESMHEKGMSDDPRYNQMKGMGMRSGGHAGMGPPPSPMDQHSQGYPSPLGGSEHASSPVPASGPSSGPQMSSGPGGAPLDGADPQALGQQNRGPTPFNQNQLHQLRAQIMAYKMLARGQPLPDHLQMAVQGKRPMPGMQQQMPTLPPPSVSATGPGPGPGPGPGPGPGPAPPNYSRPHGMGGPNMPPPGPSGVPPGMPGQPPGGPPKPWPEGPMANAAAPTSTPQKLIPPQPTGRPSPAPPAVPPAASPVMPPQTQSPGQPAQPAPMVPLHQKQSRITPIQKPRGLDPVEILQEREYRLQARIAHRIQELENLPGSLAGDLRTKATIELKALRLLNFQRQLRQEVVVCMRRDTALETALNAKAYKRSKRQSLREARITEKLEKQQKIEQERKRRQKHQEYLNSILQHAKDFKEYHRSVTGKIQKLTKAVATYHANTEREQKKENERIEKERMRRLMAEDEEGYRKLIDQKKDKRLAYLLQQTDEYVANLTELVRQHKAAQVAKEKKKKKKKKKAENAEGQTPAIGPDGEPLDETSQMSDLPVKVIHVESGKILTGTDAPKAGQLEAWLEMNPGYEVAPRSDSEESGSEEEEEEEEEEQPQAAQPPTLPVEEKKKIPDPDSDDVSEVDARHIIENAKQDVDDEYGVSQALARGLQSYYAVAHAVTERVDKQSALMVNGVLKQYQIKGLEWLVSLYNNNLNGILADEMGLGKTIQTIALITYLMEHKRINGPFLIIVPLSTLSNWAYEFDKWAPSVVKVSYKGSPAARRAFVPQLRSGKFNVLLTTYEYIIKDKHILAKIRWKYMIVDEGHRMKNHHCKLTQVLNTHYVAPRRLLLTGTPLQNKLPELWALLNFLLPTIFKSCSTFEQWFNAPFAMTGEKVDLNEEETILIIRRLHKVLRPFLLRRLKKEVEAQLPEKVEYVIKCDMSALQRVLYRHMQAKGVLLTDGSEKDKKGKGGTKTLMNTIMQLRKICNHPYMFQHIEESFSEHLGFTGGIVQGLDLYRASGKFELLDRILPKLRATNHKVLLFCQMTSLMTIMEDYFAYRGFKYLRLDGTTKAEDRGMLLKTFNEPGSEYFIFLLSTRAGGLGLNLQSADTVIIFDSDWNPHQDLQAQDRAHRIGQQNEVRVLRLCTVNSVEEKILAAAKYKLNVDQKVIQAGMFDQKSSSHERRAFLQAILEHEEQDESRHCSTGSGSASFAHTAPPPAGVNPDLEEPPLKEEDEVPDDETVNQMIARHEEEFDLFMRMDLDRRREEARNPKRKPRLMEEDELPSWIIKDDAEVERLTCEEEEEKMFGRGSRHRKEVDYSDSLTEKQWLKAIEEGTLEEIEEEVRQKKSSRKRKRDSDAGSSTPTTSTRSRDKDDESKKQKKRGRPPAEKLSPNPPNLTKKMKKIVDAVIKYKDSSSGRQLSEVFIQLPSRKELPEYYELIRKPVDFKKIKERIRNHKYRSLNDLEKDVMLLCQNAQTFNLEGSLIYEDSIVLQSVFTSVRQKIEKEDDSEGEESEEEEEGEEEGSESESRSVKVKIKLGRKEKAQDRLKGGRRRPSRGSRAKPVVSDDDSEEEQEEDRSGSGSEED
Summary of the method: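 24 h compound exposure, MV4-11; RIPA lysates → SDS-PAGE → NC membrane; anti-SMARCA2/BRM, anti-BRG1, β-actin loading control; LI-COR fluorescence read. DC50 and Dmax at 24 h reported as letter bins.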

SMARCA2 [1] = biological target: T2, SMARCA2 (Homo sapiens, UniProt P51531); assay: MSD SMARCA2 degradation in A549 cell line; settings: for SMARCA2 MSD A549 degradation 24 h: Average Dmax % / DC50: A549 cells; for DC50 / Dmax: 24 h; for DC50: read-out: SMARCA2 MSD A549 degradation 24 h: Average external-Abs DC50; for Dmax: A549, A549 cells
T2 sequence (P51531 whole entry): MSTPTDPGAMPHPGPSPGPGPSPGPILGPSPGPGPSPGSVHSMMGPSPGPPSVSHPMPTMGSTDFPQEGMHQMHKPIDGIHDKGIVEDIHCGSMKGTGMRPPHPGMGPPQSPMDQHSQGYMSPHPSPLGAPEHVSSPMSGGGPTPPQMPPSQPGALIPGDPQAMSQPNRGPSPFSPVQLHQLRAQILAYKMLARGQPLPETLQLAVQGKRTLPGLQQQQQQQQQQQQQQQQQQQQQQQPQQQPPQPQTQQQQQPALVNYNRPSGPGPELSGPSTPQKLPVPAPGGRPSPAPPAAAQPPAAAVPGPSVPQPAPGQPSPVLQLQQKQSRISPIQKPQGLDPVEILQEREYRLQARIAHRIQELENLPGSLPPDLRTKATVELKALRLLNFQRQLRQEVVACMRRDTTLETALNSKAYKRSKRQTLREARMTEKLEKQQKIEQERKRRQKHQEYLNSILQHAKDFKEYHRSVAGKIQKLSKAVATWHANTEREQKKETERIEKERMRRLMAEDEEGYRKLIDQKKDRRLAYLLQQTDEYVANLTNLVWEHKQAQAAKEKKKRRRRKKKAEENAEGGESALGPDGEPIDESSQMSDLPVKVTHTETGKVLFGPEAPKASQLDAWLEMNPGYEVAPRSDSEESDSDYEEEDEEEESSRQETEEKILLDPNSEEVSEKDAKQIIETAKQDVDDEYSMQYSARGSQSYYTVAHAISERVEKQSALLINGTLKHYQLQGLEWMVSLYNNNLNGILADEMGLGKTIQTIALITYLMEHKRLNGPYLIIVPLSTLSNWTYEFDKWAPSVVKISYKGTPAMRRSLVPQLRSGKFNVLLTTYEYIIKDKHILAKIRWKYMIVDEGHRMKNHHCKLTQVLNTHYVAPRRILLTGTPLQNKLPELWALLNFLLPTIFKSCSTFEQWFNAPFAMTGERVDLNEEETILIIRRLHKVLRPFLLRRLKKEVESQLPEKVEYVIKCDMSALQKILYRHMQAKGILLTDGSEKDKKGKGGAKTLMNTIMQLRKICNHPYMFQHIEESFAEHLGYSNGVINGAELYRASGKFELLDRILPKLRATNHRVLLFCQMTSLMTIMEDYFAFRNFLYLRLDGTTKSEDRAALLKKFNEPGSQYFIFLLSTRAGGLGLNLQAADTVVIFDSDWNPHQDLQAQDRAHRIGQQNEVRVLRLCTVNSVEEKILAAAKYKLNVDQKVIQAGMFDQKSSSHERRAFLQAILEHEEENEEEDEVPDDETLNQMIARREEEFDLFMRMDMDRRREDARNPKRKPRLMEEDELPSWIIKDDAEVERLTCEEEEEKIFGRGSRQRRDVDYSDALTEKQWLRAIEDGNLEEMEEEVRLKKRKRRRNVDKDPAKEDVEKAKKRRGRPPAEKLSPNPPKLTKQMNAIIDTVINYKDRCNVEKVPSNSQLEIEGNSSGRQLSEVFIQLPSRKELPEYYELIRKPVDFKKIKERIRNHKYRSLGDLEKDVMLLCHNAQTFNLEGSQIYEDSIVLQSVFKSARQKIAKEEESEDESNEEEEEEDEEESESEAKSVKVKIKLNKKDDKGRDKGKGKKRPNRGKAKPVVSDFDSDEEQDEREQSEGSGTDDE
Summary of the method: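 A549 cells treated 24 h with compound, 3-fold series from 1000 nM. Lysates captured on MSD plates and SMARCA2 quantified with anti-SMARCA2 and SULFO-TAG secondary antibodies (electrochemiluminescence). DC50 and Dmax (% degradation at 24 h) reported as letter bins.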

SMARCA2 [2] = biological target: T2, SMARCA2; assay: SMARCA2 Western blot degradation in MV4-11 cells; set-up: SMARCA2/SMARCA4 protein degradation selectivity in MV4-11 cells; endogenous in cells; host or cells: MV4-11; settings: for SMARCA2 MSD MV411 degradation 24 h: average Dmax % / DC50 / Selectivity in MV411: MV4-11 cells; for SMARCA2 MSD MV411 degradation 24 h: average Dmax % / DC50 / Dmax: 24 h; for DC50: read-out: SMARCA2 MSD MV411 degradation 24 h: Mean external-Abs DC50; for Selectivity in MV411: SMARCA2/4 selectivity; for Dmax: MV4-11, MV4-11 cells, read-out: SMARCA2 MSD MV411 degradation 24 h: average Dmax %

In the case of `C#Cc1ccc(CNC(=O)[C@@H]2C[C@@H](O)CN2C(=O)[C@@H](NC(=O)[C@H]2CC3(C2)C[C@H](N2CCC(N4CCC(N5CCN6c7cc(-c8ccccc8O)nnc7NC[C@H]6C5)CC4)CC2)C3)C(C)(C)CCO)cc1` (single isomer, unassigned) [I-365], the “SMARCA4 MSD MV411 degradation 24 h: average Dmax %” value (SMARCA4) is reported as “D (D (<50% degradation))”, the DC50 (SMARCA4) is reported as > 100 nM and the “SMARCA2 MSD A549 degradation 24 h: Average Dmax %” value (SMARCA2 [1]) is reported as “A (A (>90% degradation))”. The DC50 (SMARCA2 [1]) was > 100 nM, the “SMARCA2 MSD MV411 degradation 24 h: average Dmax %” value (SMARCA2 [2]) was “B (B (>70-90% degradation))” and the DC50 (SMARCA2 [2]) was 1 to 10 nM. The “Selectivity in MV411” value (SMARCA2 [2]) was “A (A (>500 fold))”.
`Cc1ncsc1-c1ccc(CNC(=O)[C@@H]2C[C@@H](O)CN2C(=O)C(c2cc(OCCCN3CCC(c4cnc(N5CCN6c7cc(-c8ccccc8O)nnc7NCC6C5)nc4)CC3)no2)C(C)C)cc1` (stereo in doubt) [I-52, (2S,4R)-4-hydroxy-1-(2-(3-(3-(4-(2-((S)-2-(2-hydroxyphenyl)-6a,7,9,10-tetrahydro-5H-pyrazino[1′,2′:4,5]pyrazino[2,3-c]pyridazin-8(6H)-yl)pyrimidin-5-yl)piperidin-1-yl)propoxy)isoxazol-5-yl)-3-methylbutanoyl)-N-(4-(4-methylthiazol-5-yl)benzyl)pyrrolidine-2-carboxamide] was tested, and the Dmax (SMARCA4) was > 90%, the DC50 (SMARCA4) was 1 to 10 nM and the Dmax (SMARCA2 [1]) was > 90%. For the same compound, the DC50 (SMARCA2 [1]) was 10 to 50 nM, the Dmax (SMARCA2 [2]) was > 90% and the DC50 (SMARCA2 [2]) was < 1 nM. For the same compound, the “Selectivity in MV411” value (SMARCA2 [2]) was “D (D (<10 fold))”.
For `Cc1ncsc1-c1ccc(CNC(=O)[C@@H]2C[C@@H](O)CN2C(=O)C(c2cc(N3CCC(CCN4CCC(c5cnc(N6CCc7[nH]c8nnc(-c9ccccc9O)cc8c7[C@H]6C)nc5)CC4)CC3)no2)C(C)C)cc1` (some centres unmarked) [I-7], the Dmax (SMARCA4) was > 90%, the DC50 (SMARCA4) was 10 to 100 nM and the Dmax (SMARCA2 [1]) was > 90%. For the same compound, the DC50 (SMARCA2 [1]) was 10 to 50 nM, the Dmax (SMARCA2 [2]) was > 90% and the DC50 (SMARCA2 [2]) was 1 to 10 nM. The “Selectivity in MV411” value (SMARCA2 [2]) was “C (C (10-100 fold))”.
For `Cc1ncsc1-c1ccc(CNC(=O)[C@@H]2C[C@@H](O)CN2C(=O)C(c2cc(N3CC4(CC(N5CCC(c6cnc(N7CCc8[nH]c9nnc(-c%10ccccc%10O)cc9c8[C@@H]7C)nc6)CC5)C4)C3)no2)C(C)C)cc1` (some centres unmarked) [I-11], the Dmax (SMARCA4) was > 90%, the DC50 (SMARCA4) was 10 to 100 nM and the Dmax (SMARCA2 [1]) was > 90%. The DC50 (SMARCA2 [1]) was 10 to 50 nM, the Dmax (SMARCA2 [2]) was > 90% and the DC50 (SMARCA2 [2]) was 1 to 10 nM. For the same compound, the “Selectivity in MV411” value (SMARCA2 [2]) was “D (D (<10 fold))”.
For `Cc1ncsc1-c1ccc(CNC(=O)[C@@H]2C[C@@H](O)CN2C(=O)C(c2cc(N3CCC4(CC3)CC(N3CCC(c5cnc(N6CCc7[nH]c8nnc(-c9ccccc9O)cc8c7[C@H]6C)nc5)CC3)C4)no2)C(C)C)cc1` (some centres unmarked) [I-13], the Dmax (SMARCA4) was > 90%, the DC50 (SMARCA4) was 10 to 100 nM and the Dmax (SMARCA2 [1]) was > 90%. The DC50 (SMARCA2 [1]) was 10 to 50 nM, the Dmax (SMARCA2 [2]) was > 90% and the DC50 (SMARCA2 [2]) was 1 to 10 nM. For the same compound, the “Selectivity in MV411” value (SMARCA2 [2]) was “C (C (10-100 fold))”.
In the case of `Cc1ncsc1-c1ccc(CNC(=O)[C@@H]2C[C@@H](O)CN2C(=O)[C@@H](NC(=O)[C@H]2CC3(C2)C[C@H](N2CCN(c4cnc(N5CCN6c7cc(-c8ccccc8O)nnc7NC[C@H]6C5)nc4)CC2)C3)C(C)(C)C)cc1` (some centres unmarked) [I-18], the Dmax (SMARCA4) is reported as < 50%, the DC50 (SMARCA4) is reported as 10 to 100 nM and the “SMARCA2 MSD A549 degradation 24 h: Average Dmax %” value (SMARCA2 [1]) is reported as “D (D (<50% degradation))”. The “SMARCA2 MSD MV411 degradation 24 h: average Dmax %” value (SMARCA2 [2]) was “D (D (<50% degradation))”, the DC50 (SMARCA2 [2]) was 10 to 100 nM and the “Selectivity in MV411” value (SMARCA2 [2]) was “C (C (10-100 fold))”.
For `Cc1ncsc1-c1ccc(CNC(=O)[C@@H]2C[C@@H](O)CN2C(=O)[C@@H](NC(=O)[C@H]2CC3(C2)C[C@H](N2CCN(c4cnc(N5CCN6c7cc(-c8ccccc8O)nnc7NC[C@H]6C5)nc4)CC2)C3)C(C)(C)C)cc1` (some centres unmarked) [I-19], the “SMARCA4 MSD MV411 degradation 24 h: average Dmax %” value (SMARCA4) was “B (B (>70-90% degradation))”, the DC50 (SMARCA4) was 10 to 100 nM and the “SMARCA2 MSD A549 degradation 24 h: Average Dmax %” value (SMARCA2 [1]) was “A (A (>90% degradation))”. For the same compound, the DC50 (SMARCA2 [1]) was 10 to 50 nM, the “SMARCA2 MSD MV411 degradation 24 h: average Dmax %” value (SMARCA2 [2]) was “A (A (>90% degradation))” and the DC50 (SMARCA2 [2]) was 1 to 10 nM. The “Selectivity in MV411” value (SMARCA2 [2]) was “C (C (10-100 fold))”.
With `Cc1ncsc1-c1ccc(CNC(=O)[C@@H]2C[C@@H](O)CN2C(=O)C(c2cc(OCCCCN3CCC(c4cnc(N5CCc6[nH]c7nnc(-c8ccccc8O)cc7c6[C@H]5C)nc4)CC3)no2)C(C)C)cc1` (some centres unmarked) [I-35] the Dmax (SMARCA4) was 70 to 90%, the DC50 (SMARCA4) was 1 to 10 nM and the Dmax (SMARCA2 [1]) was 70 to 90%. The DC50 (SMARCA2 [1]) was 10 to 50 nM, the Dmax (SMARCA2 [2]) was > 90% and the DC50 (SMARCA2 [2]) was 1 to 10 nM. For the same compound, the “Selectivity in MV411” value (SMARCA2 [2]) was “D (D (<10 fold))”.
In the case of `Cc1ncsc1-c1ccc(CNC(=O)[C@@H]2C[C@@H](O)CN2C(=O)C(c2cc(OCCN3CCC(N4CCC(c5cnc(N6CCc7[nH]c8nnc(-c9ccccc9O)cc8c7[C@H]6C)nc5)CC4)CC3)no2)C(C)C)cc1` (some centres unmarked) [I-36], the Dmax (SMARCA4) is reported as > 90%, the DC50 (SMARCA4) is reported as 1 to 10 nM and the Dmax (SMARCA2 [1]) is reported as > 90%. The DC50 (SMARCA2 [1]) was 10 to 50 nM, the Dmax (SMARCA2 [2]) was > 90% and the DC50 (SMARCA2 [2]) was 1 to 10 nM. The “Selectivity in MV411” value (SMARCA2 [2]) was “D (D (<10 fold))”.
